The term EC50 denotes the concentration needed to bring the measured effect to its halfway point. Low values mean a more potent agent, high ones a less potent agent. What is called IC50 is the point on the concentration scale where inhibition reaches its midpoint.

Calls of active or inactive are those of the source. The rule behind the calls is not given here.

The values that follow come from ChEMBL document CHEMBL1141479 (Bioorg Med Chem Lett, 2008).

In assay [1] the target is T1, Progesterone receptor (Homo sapiens, UniProt P06401).
T1 sequence (P06401 whole entry): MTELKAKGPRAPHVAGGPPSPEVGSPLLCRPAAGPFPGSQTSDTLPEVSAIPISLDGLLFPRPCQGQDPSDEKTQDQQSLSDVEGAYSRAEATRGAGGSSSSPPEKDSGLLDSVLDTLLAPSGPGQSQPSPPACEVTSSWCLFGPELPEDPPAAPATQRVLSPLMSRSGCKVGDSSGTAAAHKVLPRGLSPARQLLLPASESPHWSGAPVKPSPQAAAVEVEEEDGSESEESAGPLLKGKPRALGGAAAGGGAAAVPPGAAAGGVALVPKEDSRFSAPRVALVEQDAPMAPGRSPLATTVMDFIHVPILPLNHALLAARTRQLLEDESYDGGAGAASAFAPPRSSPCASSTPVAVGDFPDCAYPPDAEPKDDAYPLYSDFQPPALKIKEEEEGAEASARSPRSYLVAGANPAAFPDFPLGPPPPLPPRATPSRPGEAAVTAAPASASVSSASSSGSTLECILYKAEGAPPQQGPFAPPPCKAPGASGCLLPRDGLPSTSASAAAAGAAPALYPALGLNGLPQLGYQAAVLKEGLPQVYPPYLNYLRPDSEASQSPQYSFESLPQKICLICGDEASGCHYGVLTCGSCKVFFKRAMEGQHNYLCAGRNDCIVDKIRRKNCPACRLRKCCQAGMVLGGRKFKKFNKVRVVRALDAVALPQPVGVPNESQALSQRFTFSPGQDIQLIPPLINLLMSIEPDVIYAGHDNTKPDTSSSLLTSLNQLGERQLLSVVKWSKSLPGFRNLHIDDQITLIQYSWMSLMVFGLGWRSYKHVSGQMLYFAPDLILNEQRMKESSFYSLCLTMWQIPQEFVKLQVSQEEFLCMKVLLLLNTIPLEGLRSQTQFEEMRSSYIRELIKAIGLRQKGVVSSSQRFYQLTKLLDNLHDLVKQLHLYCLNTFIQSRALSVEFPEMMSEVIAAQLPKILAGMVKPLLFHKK
The assay can be described thus: (§1) Agonist activity at progesterone receptor expressed in CHO cells by luciferase assay. It is filed as functional, cell-based.

The target of assay [2] is T1, Progesterone receptor. The assay can be described thus: (§2) Inhibition of progesterone receptor expressed in CHO cells by luciferase assay. The assay is classed as cell-based.
In assay [3] the target is T2, Progesterone receptor (Homo sapiens) (UniProt P06401).
T2 sequence (whole entry): T1 sequence (P06401 whole entry)
Described as §1. It is filed as functional, cell-based.

In assay [4] the target is T2, Progesterone receptor (Homo sapiens). The description is as §2. The assay is classed as cell-based.

As for `O=C(N[C@H]1CCCN2c3c(ccc(Cl)c3Cl)Oc3ccccc3[C@H]12)C(F)(F)F`, the EC50 on Progesterone receptor [1] came out at 1.6 nM. This lies in the single-digit nanomolar range.

`CN1c2ccccc2[C@@H]2[C@@H](NC(=O)C(F)(F)F)CCCN2c2cc(Cl)ccc21` yielded an EC50 at Progesterone receptor [1] of 9.8 nM. Same read-out and setting: to `FC(F)(F)C(=S)N[C@H]1CCCN2c3cc(Cl)ccc3Oc3ccccc3[C@H]12` belongs 1.3 nM; to `C=Cc1ccc2c(c1)N1CCC[C@H](NC(=O)C(F)(F)F)[C@H]1c1ccccc1O2`, > 1000 nM. At Progesterone receptor [1], `CC(=O)N[C@H]1CCCN2c3cc(Cl)ccc3Oc3ccccc3[C@H]12` displayed an EC50 of 4450 nM. This compound displayed an IC50 against Progesterone receptor [2] of 193 nM. For `O=C(N[C@H]1CCCN2c3cc(Cl)ccc3Oc3ccccc3[C@H]12)C(F)(F)F` the same measures were 3 nM and 4.3 nM. Take `CN(C(=O)C(F)(F)F)[C@H]1CCCN2c3cc(Cl)ccc3Oc3ccccc3[C@H]12`: a half-maximal response at Progesterone receptor [1] (EC50) required 450 nM. Same read-out and setting: to `O=C(N[C@H]1CCCN2c3cc(Cl)ccc3Oc3ccccc3[C@H]12)OCCl` belongs 598 nM. `O=C(N[C@H]1CCCN2c3cc(Cl)c(Cl)cc3Oc3ccccc3[C@H]12)C(F)(F)F` registered an EC50 on Progesterone receptor [1] of 38 nM. Besides, 318 nM corresponded to half-maximal inhibition at Progesterone receptor [2] (IC50). For `CCN[C@H]1CCCN2c3ccccc3Oc3ccccc3[C@H]12`, the result in assay [3] and in assay [4] was inactive. Consider `CC(C)CNC(=S)N[C@H]1CCCN2c3cc(Cl)ccc3Oc3ccccc3[C@H]12`, for which, in assay [3], the outcome was inactive. The same compound came in with an IC50 against Progesterone receptor [2] of 314 nM.

`N=C(N[C@H]1CCCN2c3cc(Cl)ccc3Oc3ccccc3[C@H]12)C(F)(F)F` had an EC50 on Progesterone receptor [1] of 10.3 nM. For the same compound, at Progesterone receptor [2], the IC50 came to 133 nM. The like results for `O=C(N[C@H]1CCCN2c3cc(F)ccc3Oc3ccccc3[C@H]12)C(F)(F)F` were, in that order, 198 nM and 730 nM.

Compound `O=C(NC1CCCN2c3cc(Cl)ccc3Oc3ccccc3C12)C(F)(F)F` (racemic) yielded an EC50 on Progesterone receptor [1] of 10.6 nM. On Progesterone receptor [2], this compound registered an IC50 of 43 nM.

As to `O=C(N[C@H]1CCCN2c3cc(Cl)ccc3Sc3ccccc3[C@H]12)C(F)(F)F`, on Progesterone receptor [1], the 50% effective concentration (EC50) came out at 2.8 nM.

As for `O=C(N[C@H]1CCCN2c3c(Cl)cccc3Oc3ccccc3[C@H]12)C(F)(F)F`, on Progesterone receptor [1], the EC50 is 19 nM. Against the preceding compound, the EC50 is about 6.8-fold higher. Consider `O=C(N[C@H]1CCCN2c3ccc(Cl)cc3Oc3ccccc3[C@H]12)C(F)(F)F`, for which the EC50 at Progesterone receptor [1] turned out to be 993 nM. At Progesterone receptor [2], this compound showed an IC50 of 2220 nM. Compound `CC(=O)c1cccc2c1N1CCC[C@H](NC(=O)C(F)(F)F)[C@H]1c1ccccc1O2` yielded an EC50 on Progesterone receptor [1] of 0.96 nM.

With `N[C@H]1CCCN2c3cc(Cl)ccc3Oc3ccccc3[C@H]12`, the EC50 at Progesterone receptor [1] came to 513 nM. Also, the result in assay [4] was inactive. With `N[C@H]1CCCN2c3ccccc3Oc3ccccc3[C@H]12`, the result in assay [3] and in assay [4] was inactive. At Progesterone receptor [1], `O=C(N[C@H]1CCCN2c3cc(Cl)ccc3Cc3ccccc3[C@H]12)C(F)(F)F` showed an EC50 of 2 nM. For the same compound, at Progesterone receptor [2], it took 26 nM to reach half-maximal inhibition (IC50). Turning to `C=Cc1cccc2c1N1CCC[C@H](NC(=O)C(F)(F)F)[C@H]1c1ccccc1O2`, the EC50 at Progesterone receptor [1] amounted to 0.81 nM. Same read-out and setting: to `CC(C)CN[C@H]1CCCN2c3cc(Cl)ccc3Oc3ccccc3[C@H]12` belongs 1340 nM; to `CC(=O)c1ccc2c(c1)N1CCC[C@H](NC(=O)C(F)(F)F)[C@H]1c1ccccc1O2`, 258 nM; to `O=C(N[C@@H]1CCCN2c3cc(Cl)ccc3Oc3ccccc3[C@@H]12)C(F)(F)F` (racemic), 54 nM. In the case of `O=C(N[C@H]1CCCN2c3ccccc3Oc3ccccc3[C@H]12)C(F)(F)F`, it took 222 nM to reach a half-maximal effect at Progesterone receptor [1] (EC50).
